The source made the active and inactive calls. The rule behind the calls is not given here. Where only a bound is given, the exact number is not on record here.

Results on 22 compounds are retold here after ChEMBL document CHEMBL1121978, “Ultra-short-acting beta-adrenergic receptor blocking agents. 2. (Aryloxy)propanolamines containing esters on the aryl function” (J Med Chem, 1982).

Test [1] concerns the target Beta-1 adrenergic receptor (Canis lupus familiaris) (UniProt P79148).
Test [2] shares this target. This is another data set of the same source.
Test [3] has as its target Beta-1 adrenergic receptor (Cavia porcellus) (UniProt B0FL73). Nature of the test: Cardioselectivity expressed as antilog of pA2 (atria)-pA2 (trachea).
The target of test [4] is Beta-1 adrenergic receptor (Cavia porcellus, UniProt B0FL73). Nature of the test: The compound was tested in vitro for its ability to block Beta-1 adrenergic receptor in guinea pig right atria preparation. Conditions: read-out: pA2 (converted).
Chain of Beta-1 adrenergic receptor (B0FL73 whole entry): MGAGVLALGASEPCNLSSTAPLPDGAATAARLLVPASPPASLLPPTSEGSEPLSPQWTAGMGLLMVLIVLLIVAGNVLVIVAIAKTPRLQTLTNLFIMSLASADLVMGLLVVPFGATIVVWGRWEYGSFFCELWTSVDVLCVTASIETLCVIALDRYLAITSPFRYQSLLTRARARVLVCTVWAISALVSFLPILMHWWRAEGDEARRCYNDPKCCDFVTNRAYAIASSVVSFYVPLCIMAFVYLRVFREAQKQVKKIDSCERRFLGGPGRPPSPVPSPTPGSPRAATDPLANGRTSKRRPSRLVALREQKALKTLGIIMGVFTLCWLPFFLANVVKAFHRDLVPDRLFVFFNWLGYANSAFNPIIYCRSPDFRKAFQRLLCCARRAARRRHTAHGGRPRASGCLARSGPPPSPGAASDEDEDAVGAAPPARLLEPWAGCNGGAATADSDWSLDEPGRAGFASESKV
In test [5] the target is Beta-1 adrenergic receptor (Cavia porcellus) (UniProt B0FL73).
Chain of Beta-1 adrenergic receptor (Cavia porcellus) (B0FL73 1-467): as the sequence (B0FL73 whole entry) above
Description: The compound was tested in vivo for its ability to block beta-1-adrenergic receptor in guinea pig right atria preparation at a duration of 3h
Test [6] has the same target. The experiment in a line: The compound was tested in vitro for its ability to block Beta-1 adrenergic receptor in guinea pig right atria preparation at 10e-5M; inactive.

In the case of `COC(=O)c1ccccc1OCC(O)CNC(C)C` (stereo not drawn), the In vivo duration in test [1] and in test [2] was 15 min in each case.

`COC(=O)/C=C/c1ccc(OCC(O)CNC(C)C)cc1` (stereo not drawn) displayed an In vivo duration in test [1] of over 60 min. The same compound displayed a Cardio selectivity in test [3] of 18. The compound `COC(=O)c1ccc(OCC(O)CNC(C)(C)C)cc1` (stereo not drawn) showed an In vivo duration in test [2] of 22 min.

The compound `COC(=O)c1ccccc1OCC(O)CNCCc1ccc(OC)c(OC)c1` (stereo not drawn) displayed an In vivo duration in test [1] of 30 min. For the compound `COC(=O)c1ccccc1OCC(O)CNC(C)(C)CO` (stereo not drawn), the In vivo duration in test [1] worked out at 55 min. Consider `C=COC(=O)c1ccc(OCC(O)CNC(C)C)cc1` (stereo not drawn), for which the Cardio selectivity in test [3] was 5. The Kb in test [4] is 501 nM. Compound `C=COC(=O)c1cccc(OCC(O)CNC(C)C)c1` (stereo not drawn) gave an In vivo duration in test [5] of over 60 min. Moreover, the Kb in test [4] is 126 nM.

Regarding `C=COC(=O)c1ccccc1OCC(O)CNC(C)C` (stereo not drawn), the Kb in test [4] was 12.6 nM.

`COC(=O)Cc1ccc(OCC(O)CNC(C)C)cc1` (stereo not drawn): the In vivo duration in test [1] is over 60 min; in test [2] it was 20 min. Take `CCOC(=O)c1ccc(OCC(O)CNC(C)C)cc1` (stereo not drawn): the In vivo duration in test [2] is 56 min. Still for that read-out and setting: to `COC(=O)c1ccc(OCC(O)CNC(C)C)cc1` (stereo not drawn) belongs 31 min. `COC(=O)CCc1ccc(OCC(O)CNC(C)C)cc1` (stereo not drawn): the In vivo duration in test [1] and in test [2] was 12 min each time. Take `COC(=O)CCc1ccc(OCC(O)CNCCc2ccc(OC)c(OC)c2)cc1` (stereo not drawn): the In vivo duration in test [1] was found to be 14 min. Also, the Cardio selectivity in test [3] was determined as 20.

For the compound `COC(=O)CCc1ccc(OCC(O)CNCCCc2ccccc2)cc1` (stereo not drawn), the Cardio selectivity in test [3] came out at 20. `CCOC(=O)c1ccccc1OCC(O)CNC(C)(C)C` (stereo not drawn): the In vivo duration in test [1] turned out to be 38 min. Consider `CC(C)NCC(O)COc1ccc(C(=O)O)cc1` (stereo not drawn), for which, in test [6], the pA2 result is “inactive”. `COC(=O)c1ccccc1OCC(O)CNC(C)(C)C` (stereo not drawn): the In vivo duration came out at 22 min in test [1] and 12 min in test [2].

Consider `COC(=O)CCc1ccc(OCC(O)CNC(C)(C)C)cc1` (stereo not drawn), for which the In vivo duration in test [1] amounted to 15 min. As to `CC(=O)Nc1ccc(OCC(O)CNC(C)C)cc1` (stereo not drawn), the In vivo duration in test [2] turned out to be 61 min.

Consider `COC(=O)CCc1ccccc1OCC(O)CNC(C)C` (stereo not drawn), for which the In vivo duration in test [1] stood at 29 min. Regarding `COC(=O)CCCc1ccc(OCC(O)CNC(C)C)cc1` (stereo not drawn), the In vivo duration in test [1] is over 60 min; in test [2] it was 40 min. In test [3], the Cardio selectivity worked out at 13. In turn, `CCOC(=O)CCc1ccc(OCC(O)CNC(C)C)cc1` (stereo not drawn) had an In vivo duration in test [1] of 43 min. The Cardio selectivity in test [3] stood at 30.
